Mortality data for one compound are collected here from patent US20090136551A1, “Substituted Dicyanoalkanes For Combating Animal Pests” (BASF AKTIENGESELLSCHAFT, priority 2005, published 2009).

Assay [1] has as its system Yellowfever Mosquito (Aedes aegyptii). Put plainly: Activity via glass contact (treated glass vials). The following applies: read-out: mortality against yellowfever mosquito. It counts as in vivo. The text has this: B.7. Activity Against Argentine Ant (Linepithema humile), Harvester Ant (Pogonomyrmex californicus), Acrobat Ant (Crematogaster spp.), Carpenter Ant (Camponotus floridanus), Fire Ant (Solenopsis invicta), House Fly (Musca domestica), Stable Fly (Stomoxys calcitrans), Flesh Fly (Sarcophaga sp.), Yellowfever Mosquito (Aedes aegyptii), House Mosquito (Culex quinquefasciatus), Malaria Mosquito (Anopheles albimanus), German Cockroach (Blattella Germanica), Cat Flea (Ctenocephalides felis), and Brown Dog Tick (Rhipicephalus sanguineus) Via Glass Contact
Glass vials were treated with 0.5 ml of a solution of active ingredient in acetone and allowed to dry. Insects or ticks were placed into each vial together with some food and moisture supply.

Assay [2] deals with Bird Cherry-Oat Aphid (Rhopalosiphum padi). Put plainly: Activity against bird cherry-oat aphid (sprayed barley leaf disks). In kind it is in vivo. The following applies: foliar, 120 h. Here is the method: B.6. Activity Against Bird Cherry-Oat Aphid Aphid (Rhopalosiphum padi)
The active compounds were formulated in 1:3 DMSO:water. Barley leaf disks were placed into microtiterplates filled with 0.8% agar-agar and 2.5 ppm OPUS™. The leaf disks were sprayed with 2.5 μl of the test solution and 5 to 8 adult aphids were placed into the microtiterplates which were then closed and kept at 19-22° C. and 35-45% under fluorescent light for 5 days. Mortality was assessed on the basis of vital, reproduced aphids. Tests were replicated 2 times.

On to `N#CC(C#N)(CCC(F)(F)F)Cc1cccc2nsnc12` [I.1, 2-benzo[1,2,5]thiadiazol-4-ylmethyl-2-(3,3,3-trifluoropropyl)-malononitrile], for which, in assay [1], the mortality (commonly the share of the test organisms that died) at 10 ppm was greater than 75%. In assay [2], this compound came in with a mortality at 300 ppm greater than 90%.
